Measured values as given in US20230066946A1, “1,5-DIPHENYLPYRAZOLYL-3-OXYALKYL ACIDS AND 1-PHENYL-5-THIENYLPYRAZOLYL-3-OXYALKYL ACIDS AND THE USE THEREOF FOR CONTROL OF UNWANTED PLANT GROWTH” (Bayer Aktiengesellschaft, priority 2019, published 2023).

Assays:
ECHCG [1] = assay: Pre-emergence herbicidal action against ECHCG; format: in vivo, Echinochloa crus-galli; details: scored visually after about 3 weeks vs untreated controls, 100% = plants have died, 0% = like control plants
Text: (§1) Seeds of mono- and dicotyledonous weed plants are placed in plastic pots in sandy loam soil (doubly sown with one species each of mono- or dicotyledonous weed plants per pot) and covered with soil. The compounds of the invention, formulated in the form of wettable powders (WP) or as emulsion concentrates (EC), are then applied onto the surface of the covering soil as aqueous suspension or emulsion with addition of 0.5% additive at a water application rate equivalent to 600 litres per hectare. After the treatment, the pots are placed in a greenhouse and kept under good growth conditions for the trial plants. After about 3 weeks, the effect of the preparations is scored visually in comparison with untreated controls as percentages. For example, 100% activity=the plants have died, 0% activity=like control plants. [table] Tables 4.1-4.15 below show the effects of selected compounds of the general formula (I) according to Tables 1 to 3 on various harmful plants at an application rate corresponding to 1280 or 320 g/ha, which have been obtained by the aforementioned experimental method.

SETVI [2] = assay: Pre-emergence herbicidal action against SETVI; format: in vivo, Setaria viridis; details: 1280 g/ha, scored visually after about 3 weeks vs untreated controls
Text: as §1

MATIN = assay: Post-emergence herbicidal action against MATIN; format: in vivo, Matricaria inodora; details: 1280 g/ha, visual rating about 3 weeks after treatment
Experimental: (§2) [table] Seeds of mono- and dicotyledonous weed plants are placed in plastic pots in sandy loam soil (twin sowing with one species each of mono- or dicotyledonous weed plants per pot), covered with soil and cultivated in a greenhouse under controlled growth conditions. 2 to 3 weeks after sowing, the test plants are treated at the one-leaf stage. The compounds of the invention, formulated in the form of wettable powders (WP) or as emulsion concentrates (EC), are applied to the green parts of the plants as aqueous suspension or emulsion with addition of 0.5% additive at a water application rate equivalent to 600 litres per hectare. After the test plants have been kept in the greenhouse under optimum growth conditions for about 3 weeks, the activity of the preparations is rated visually in comparison to untreated controls. For example, 100% activity=the plants have died, 0% activity=like control plants. Tables 5.1-5.16 below show the effects of selected compounds of the general formula (I) according to Tables 1 to 3 on various harmful plants at an application rate corresponding to 1280 or 320 g/ha, which have been obtained by the aforementioned experimental method.

AMARE [3] = assay: Pre-emergence herbicidal action against AMARE; format: in vivo, Amaranthus retroflexus; details: 1280 g/ha, scored visually after about 3 weeks vs untreated controls
Text: as §1

ECHCG [4] = assay: Post-emergence herbicidal action against ECHCG; format: in vivo, Echinochloa crus-galli; details: 1280 g/ha, post-emergence at one-leaf stage, rated visually after about 3 weeks vs untreated controls
Experimental: as §2

STEME [5] = assay: Pre-emergence herbicidal action against STEME; format: in vivo, Stellaria media; details: 1280 g/ha, scored visually after about 3 weeks vs untreated controls
Text: as §1

AMARE [6] = assay: Post-emergence herbicidal action against AMARE; format: in vivo, Amaranthus retroflexus; details: 1280 g/ha, visual rating about 3 weeks after treatment
Experimental: as §2

SETVI [7] = assay: Post-emergence herbicidal action against SETVI; format: in vivo, Setaria viridis; details: 1280 g/ha, post-emergence at one-leaf stage, rated visually after about 3 weeks vs untreated controls
Experimental: as §2

STEME [8] = assay: Post-emergence herbicidal action against STEME; format: in vivo, Stellaria media; details: 1280 g/ha, visual rating about 3 weeks after treatment
Experimental: as §2

Row | Structure (SMILES) | Pre-emergence action at 1280 g/ha against ECHCG in % (ECHCG [1]) [%] | Pre-emergence action against SETVI in % (SETVI [2]) [%] | Post-emergence action against MATIN in % (MATIN) [%] | Pre-emergence action against AMARE in % (AMARE [3]) [%] | Post-emergence action against ECHCG in % (ECHCG [4]) [%] | Pre-emergence action against STEME in % (STEME [5]) [%] | Post-emergence action against AMARE in % (AMARE [6]) [%] | Post-emergence action against SETVI in % (SETVI [7]) [%] | Post-emergence action against STEME in % (STEME [8]) [%]
1 | O=C(O)COc1nn(-c2ccc(F)cc2)c(-c2cccc(F)c2)c1Cl [I-120] | 90 | 100 | 90 | 100 | 90 | 100 |  |  | 
2 | O=C(COc1nn(-c2ccc(F)cc2)c(-c2cccc(F)c2)c1Br)OCc1cccc(F)c1 [I-123] |  | 90 | 90 | 100 | 90 | 100 | 90 |  | 
3 | COC(=O)[C@H](C)Oc1nn(-c2cccc(F)c2)c(-c2cccc(F)c2)c1C#N [I-126] |  | 100 |  | 100 | 90 | 100 | 100 | 90 | 100
4 | O=C(O)COc1nn(-c2ccccc2F)c(-c2ccc(F)c(F)c2)c1Br [I-136] | 100 | 100 | 90 | 100 | 100 | 100 | 90 |  | 100
5 | CCOC(=O)COc1nn(-c2ccccc2F)c(-c2ccc(F)c(F)c2)c1[N+](=O)[O-] [I-143] |  | 100 | 100 | 100 | 100 | 90 | 100 |  | 100
6 | COC(=O)C(C)Oc1nn(-c2ccccc2)c(-c2cccc(F)c2)c1Cl (stereo not drawn) [I-164] | 100 | 100 | 100 | 100 | 90 | 100 | 100 | 100 | 100
7 | CC(Oc1nn(-c2c(F)cccc2F)c(-c2ccc(F)c(F)c2)c1Br)C(=O)O (stereo not drawn) [I-167] | 100 | 100 |  | 100 | 90 | 100 |  |  | 100
8 | COC(=O)C(C)Oc1nn(-c2c(F)cccc2F)c(-c2ccc(F)c(F)c2)c1Br (stereo not drawn) [I-169] | 100 | 100 | 90 | 100 | 90 | 100 | 100 | 90 | 100
9 | CCOC(=O)CCNC(=O)COc1nn(-c2ccc(F)cc2)c(-c2cccc(F)c2)c1Br [III-019] |  | 100 | 90 | 90 | 90 | 100 | 100 | 90 | 
10 | C=CCNC(=O)COc1nn(-c2ccccc2F)c(-c2ccc(F)c(F)c2)c1Cl [III-067] | 100 | 100 | 90 | 100 |  | 90 |  | 100 | 100
